IC50 data for 4 molecules are collected here from patent US6964979B2, “R-enantiomers of pyranoindole derivatives and the use thereof for the treatment of hepatitis C virus infection or disease” (Wyeth, priority 2002, dated 2005).

For orientation: IC50 means the concentration that gives 50% inhibition.

The target of this assay is T1, HCV RdRp NS5B d21BK (BK strain, 1b subtype) (Hepatitis C virus genotype 1b, UniProt P26663).
T1 construct: NS5B from the BK strain (1b subtype) is expressed in E. coli as a protein in which the 21 C-terminal amino acids are replaced; made in house; host or cells: E. coli
T1 sequence (P26663 2420-2989): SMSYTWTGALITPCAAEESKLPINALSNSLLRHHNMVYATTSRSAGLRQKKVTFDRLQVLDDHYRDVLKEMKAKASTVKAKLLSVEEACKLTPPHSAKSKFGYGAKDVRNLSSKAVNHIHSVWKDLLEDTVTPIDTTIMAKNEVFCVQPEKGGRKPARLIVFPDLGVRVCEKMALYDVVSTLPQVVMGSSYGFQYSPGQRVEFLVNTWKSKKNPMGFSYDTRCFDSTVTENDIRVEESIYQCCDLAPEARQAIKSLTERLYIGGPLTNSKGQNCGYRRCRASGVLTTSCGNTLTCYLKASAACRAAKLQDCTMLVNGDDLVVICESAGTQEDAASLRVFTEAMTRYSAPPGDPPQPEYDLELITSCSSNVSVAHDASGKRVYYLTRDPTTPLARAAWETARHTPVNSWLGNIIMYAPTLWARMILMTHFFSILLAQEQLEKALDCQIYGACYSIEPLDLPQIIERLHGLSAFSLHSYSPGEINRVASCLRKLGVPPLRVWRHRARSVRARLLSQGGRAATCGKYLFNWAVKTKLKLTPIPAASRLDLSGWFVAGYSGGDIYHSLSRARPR
Description: Hepatitis C polymerase (NS5B RdRp) inhibition, 33P-GTP incorporation filter assay. Type of assay: biochemical. The following applies: NS5B d21BK 24 nM, 2 hours at room temperature; read-out: HCV pol IC50. From the text: The ability of the compounds of the present invention to inhibit Hepatitis C Polymerase was established by the following experimental procedure:
NS5B from the BK strain (1b subtype) is expressed in E. coli as a protein in which the 21 C-terminal amino acids are replaced with a short linker and a hexahistidine tag ([…]). The purified protein is mixed with radioactive nucleotides and allowed to replicate a heteropolymeric RNA substrate, primed by an endogenous short hairpin, resulting in an approximately 760 nt product. The radioactive product is captured on a filter and quantitated after removal of the unincorporated nucleotides.
(1) Compounds 10 μl at 10 μg/ml in 15% dimethylsulfoxide (DMSO)
• When starting from 100 μg/ml compound stock in […]: • Dispense 5 μl 30% DMSO per well • Dispense 5 μl compound (100 μg/ml) per well. • When starting from 50 μg/ml compound stock in 15% DMSO: • Add 10 μl compound per well. (2) Enzyme Mix:
Add 20 μl enzyme mix into each well of the assay plate. Incubate compound and enzyme at room temperature for 15 minutes. (3) Template Mix—Prepare Ahead
Spin down a tube of RNA (5 μg/tube stored in 75% ethanol and 0.3 M sodium acetate) in a microcentrifuge for 20 minutes. at 4° C. One tube is enough for 1-1.5 plates. Remove as much ethanol from the tube as possible by inverting the tube. Be gentle, pellet RNA may not adhere to the tube. Vacuum dry the RNA. Resuspend the RNA by adding 1 ml of DEPC water, close the cap of the tube tightly. To dissolve RNA, incubate RNA solution on ice for ˜60 minutes and gently vortex. Spin briefly to ensure all RNA solution is down to the bottom of the tube before opening cap. Gently transfer RNA solution into a 5 ml or larger tube. Add another 3 ml of DEPC water (total 4 ml of volume).
Add the following volumes of reagents
Add 20 μl template mix per reaction (i.e. 20 ng of pOF per reaction or ˜3 nM) (4) Incubate reaction at room temperature (22-25° C.) for 2 hours. (5) Stop reaction by adding 50 μl of 170 mM EDTA. • Final concentration of EDTA is 85 mM. (6) Prewet filters of Millipore multiscreen assay plate by adding 200 μl of 0.5 M sodium phosphate buffer, pH 7.0 into each well. Let stand at room temperature for 2-3 minutes. (7) Place the multiscreen filter plate onto a Millipore Manifold and turn on vacuum to allow buffer to flow through. Turn off vacuum. Transfer 80 μl of the reaction product into each well of the filter plate. Let stand for 2-3 minutes. Turn on vacuum to filter reaction product. (8) Turn off vacuum. Add. 200 μl of 0.5 M sodium phosphate buffer, pH 7.0 into each well to wash filter. […]
Percent inhibition is calculated after background subtraction as a percent reduction of activity relative to the positive control (average value of the plate excluding the negative controls). […]
As to `CCC[C@]1(CC(=O)O)OCCc2c1[nH]c1c(C)cc(F)c(C#N)c21` [Example 4, [(R)-5-cyano-6-fluoro-8-methyl-1-propyl-1,3,4,9-tetrahydropyrano [3,4-b]indol-1-yl]acetic acid], the 50% inhibitory concentration (IC50) came out at 80 nM. To `CCC[C@]1(CC(=O)O)OCCc2c1[nH]c1c(Cl)ccc(Cl)c21` [Example 3, [(R)-5,8-dichloro-1-propyl-1,3,4,9-tetrahydropyrano[3,4-b]indol-1-yl]acetic acid] belongs 60 nM; to `CCC[C@]1(CC(=O)O)OCCc2c1[nH]c1c(F)ccc(C#N)c21` [Example 2, [(R)-5-cyano-8-fluoro-1-propyl-1,3,4,9-tetrahydropyrano[3,4-b]indol-1-yl]acetic acid], 440 nM. Consider `CCC[C@]1(CC(=O)O)OCCc2c1[nH]c1c(C)ccc(C#N)c21` [Example 1, [(R)-5-cyano-8-methyl-1-propyl-1,3,4,9-tetrahydropyrano[3,4-b]indol-1-yl]acetic acid], for which the IC50 came out at 330 nM.
